Like-named read-outs stand apart in the source and are kept apart here.
Key:
[1] = test system: mouse melanoma (B16F10) cells; experiment: XTT cell proliferation assay, first set of experiments; assay type: cell-based; settings: 24 h
Protocol: (§1) The MDA-231 and B16F10 cells were obtained from ATCC (USA). […] The experiments were performed in 35 mm Petri dishes (NUNC, USA). Cisplatin and Taxol were obtained from Sigma (USA). A cell proliferation assay kit was obtained from Biological Industries Ltd., Israel. […] XTT is cleaved to formazan (absorbs at 450-500 nm) by the “succinate-tetrazolium reductase” system of the respiratory chain of the mitochondria and is active only in viable cells. Therefore, the amount of formazan dye (A450 nm) formed directly correlates to the number of metabolically active cells in culture. The XTT assay is widely used for the measurement of cell proliferation in response to growth factors, cytokines, mitogens, nutrients, anti-cancer drugs and physiological mediators.) The media in the Petri dish was replaced by fresh media (3 ml with or without Taxol or Cisplatin), thermo-couples were placed at the center, and the dish cover was replaced by one with attached electrodes. Cell samples without […] treatment were placed in CO2 incubator at 37° C. for 24 hours, while […] treated samples were placed in CO2 incubator at 25° C., also for 24 hours. Final incubation temperature of […] treated samples was 37±0.7° C. due to heating induced by TTFields (as measured by inserted thermo-couples). […] The rate of cell proliferation was calculated as a ratio of the final cell number to the initial cell number (OD1/OD0). […] For those samples that were subjected to TTFields, two-directional 200 kHz sinusoidal TTFields were generated by an appropriate waveform generator and an amplifier. The output of the amplifier was switched between two pairs of outputs every 250 mSec, with the outputs connected to two pairs of electrodes, insulated by a high dielectric constant ceramic (e.g., PMN-PT, EDO Corporation, Utah), positioned in the Petri dish as depicted in FIG. 1. Field intensity in the medium surrounding the cells was measured to be approximately 7 V/cm.

[2] = test system: human breast cancer (MDA-231) cells; experiment: as above; assay type: cell-based; settings: 24 h
Protocol: as §1

[3] = test system: MDA-MB-231 cells
[4] = test system: human non-small cell lung cancer (H1299) cells; assay type: cell-based

N.N.[Cl][Pt][Cl] [Cisplatin, cis-diamminedichloroplatinum(II)]
cell proliferation, drug alone compared with drug + TTFields ([1]; Cisplatin 15 μM): reduced cell proliferation to a lesser extent
cell proliferation under combined treatment ([2]; Cisplatin 15 μM + TTFields 200 kHz approx. 7 V/cm): complete cell proliferation arrest
reduced cell proliferation as compared with the control ([2]; Cisplatin 15 μM alone): 63%

O=P1(N(CCCl)CCCl)NCCCO1 (centres unmarked) [Cyclophosphamide]
effectiveness of combined treatment ([3]; 30 mM Cyclophosphamide + 1.75 V/cm TTFields applied for 1 hour): not effective
effectiveness of combined treatment ([3]; 30 mM Cyclophosphamide + 1.75 V/cm TTFields applied for 6 hours or more): fully effective

CC(=O)O[C@H]1C(=O)[C@@]2(C)[C@H]([C@H](OC(=O)c3ccccc3)[C@]3(O)C[C@H](OC(=O)[C@H](O)[C@@H](NC(=O)c4ccccc4)c4ccccc4)C(C)=C1C3(C)C)[C@]1(OC(C)=O)CO[C@@H]1C[C@@H]2O [Paclitaxel]
Combination index CI40 ([4]; Paclitaxel + TTFields 1.25 V/cm): 0.73
effect on cell proliferation rate, combination versus drug alone ([4]; Paclitaxel + TTFields 1.25 V/cm and 1.75 V/cm, all concentrations studied): significant additional decrease in cell proliferation rate
Combination index CI40 ([4]; Paclitaxel + TTFields 1.75 V/cm): 0.98
induction of cell death ([4]; Paclitaxel alone at concentrations up to 500 nM): not observed
cell proliferation rate (% of control) ([4]; Paclitaxel alone, concentrations above 200 nM, 24 h): 55%
induction of cell death ([4]; higher concentrations of Paclitaxel in combination with TTFields): cell death is induced
cell proliferation, drug alone compared with drug + TTFields ([1]; Taxol 0.05 μM): reduced cell proliferation to a lesser extent
cells died under the influence of the combined treatment ([2]; Taxol 0.05 μM + TTFields 200 kHz approx. 7 V/cm): about 40%
reduced cell proliferation as compared with the control ([2]; Taxol 0.05 μM alone): 70%
